What all share (experiment): NCI-60 cell line screen, 48 h
Assay [1] relates to U-251.
For assay [2], the system named is OVCAR-8.
In assay [3] the test system is NCI-H23.
The subject of assay [4] is HL-60.
Assay [5] relates to HOP-92.
Assay [6] has as its system COLO 205.
Assay [7] deals with UACC-62.
Assay [8] has as its system Malme-3M.
Assay [9] deals with SK-OV-3.
Assay [10] has as its system ACHN.
Assay [11] deals with MDA-MB-435.
For assay [12], the system named is SN12C.
Assay [13] has as its system NCI-H522.
The test system of assay [14] is PC-3.
Assay [15] deals with HCT-15.
The test system of assay [16] is CAKI-1.
Assay [17] deals with SF-268.
Assay [18] concerns SNB-19.
Assay [19] concerns EKVX.
The subject of assay [20] is SNB-75.

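Five compound concentrations were applied to cells in 96-well plates for 48 hours; endpoints were derived by simple linear interpolation of the resulting dose-response curve. GI50 = concentration required for 50% inhibition of growth.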 Activity calls are given as the source filed them. No stated cut-off is given here; in the data, active = GI50 up to about 1.1 µM and inactive = higher.

As to `COc1cc2nc(-c3cccs3)[nH]c(=O)c2cc1OC`, the GI50 in assay [1] is 61.7 µM (inactive); in assay [2], > 100 µM (inactive); in assay [3], > 100 µM (inactive); in assay [4], 35.4 µM (inactive); in assay [5], > 100 µM (inactive); in [6], > 100 µM (inactive). In addition, the GI50 in assay [7], in assay [8], in assay [9], in assay [10], in assay [11] and in [12] was > 100 µM (inactive) throughout. Further, the GI50 in assay [13] was > 100 µM (inactive); in [14] it was > 100 µM (inactive); in assay [15], over 100 µM; in assay [16], > 100 µM (inactive); in assay [17] it was > 100 µM (inactive); in assay [18] it was > 100 µM (inactive). For the same molecule, the GI50 in [19] and in [20] was > 100 µM (inactive) in each case.

(Values after ChEMBL document CHEMBL1201862, “PubChem BioAssay data set” (2004).)
